In ChEMBL document CHEMBL3734669, “Δ(5)-Cholenoyl-amino acids as selective and orally available antagonists of the Eph-ephrin system” (Eur J Med Chem, 2015):
pIC50: −log10 of the molar value. ≈ marks a conversion by molar mass, not a printed value.

Tests used:
[1] = Metabolic stability in mouse plasma assessed as compound remaining at 1 uM after 24 hrs by HPLC-ESI-MS/MS analysis; format: ADME, cell-free; settings: read-out: Stability
[2] = Kinetic solubility of the compound in NaCl solution at 25 deg C after 2 hrs by HPLC-ESI-MS/MS analysis; format: physicochemical; settings: read-out: Kinetic_solubility
[3] = Tmax in mouse at 30 mg/kg, po administered as single dose by HPLC-MS analysis; format: ADME, organism-based; settings: in vivo
[4] = target: Ephrin type-A receptor 5 (Homo sapiens, UniProt P54756); assay: Displacement of biotinylated ephrin-A1-Fc from EphA5 (unknown origin) preincubated for 1 hr followed by biotinylated-ephrin-A1-Fc addition measured after 4 hrs by ELISA
Sequence of Ephrin type-A receptor 5 (P54756 whole entry): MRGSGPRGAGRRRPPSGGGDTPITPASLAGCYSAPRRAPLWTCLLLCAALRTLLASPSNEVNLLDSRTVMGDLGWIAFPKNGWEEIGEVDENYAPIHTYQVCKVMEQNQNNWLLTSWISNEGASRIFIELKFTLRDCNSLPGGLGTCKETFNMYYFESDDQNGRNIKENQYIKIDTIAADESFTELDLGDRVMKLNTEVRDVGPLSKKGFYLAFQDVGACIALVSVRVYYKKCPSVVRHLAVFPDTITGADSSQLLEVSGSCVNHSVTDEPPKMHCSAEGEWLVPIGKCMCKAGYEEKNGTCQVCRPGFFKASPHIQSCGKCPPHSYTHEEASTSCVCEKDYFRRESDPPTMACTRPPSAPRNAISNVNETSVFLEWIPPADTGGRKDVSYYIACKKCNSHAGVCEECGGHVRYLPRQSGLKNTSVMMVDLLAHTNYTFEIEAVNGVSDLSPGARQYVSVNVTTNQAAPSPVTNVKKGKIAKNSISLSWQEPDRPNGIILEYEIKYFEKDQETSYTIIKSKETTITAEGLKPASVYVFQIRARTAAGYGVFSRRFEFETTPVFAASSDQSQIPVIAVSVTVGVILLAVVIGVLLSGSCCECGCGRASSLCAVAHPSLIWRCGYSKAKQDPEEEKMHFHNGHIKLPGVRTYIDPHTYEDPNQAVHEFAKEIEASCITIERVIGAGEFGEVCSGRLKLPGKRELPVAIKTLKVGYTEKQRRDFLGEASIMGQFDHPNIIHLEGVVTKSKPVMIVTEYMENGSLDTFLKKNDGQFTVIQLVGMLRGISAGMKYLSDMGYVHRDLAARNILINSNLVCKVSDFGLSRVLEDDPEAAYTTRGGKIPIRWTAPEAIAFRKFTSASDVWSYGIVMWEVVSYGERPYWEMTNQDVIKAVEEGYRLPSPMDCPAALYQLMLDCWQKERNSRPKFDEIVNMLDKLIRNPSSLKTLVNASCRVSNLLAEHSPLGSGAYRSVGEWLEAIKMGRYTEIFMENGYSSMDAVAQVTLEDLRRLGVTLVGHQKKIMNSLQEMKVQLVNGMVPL

[5] = Metabolic stability in mouse liver S9 fractions assessed as compound remaining at 1 uM after 1 hr by HPLC-ESI-MS/MS analysis in presence of NADPH regenerating system; format: ADME, subcellular, Liver S9 fraction; settings: read-out: Stability
[6] = target: T1, Ephrin type-B receptor 4 (Homo sapiens) (UniProt P54760); assay: Displacement of biotinylated ephrin-B1-Fc from EphB4 (unknown origin) preincubated for 1 hr followed by biotinylated-ephrin-B1-Fc addition measured after 4 hrs by ELISA
T1 sequence (whole entry): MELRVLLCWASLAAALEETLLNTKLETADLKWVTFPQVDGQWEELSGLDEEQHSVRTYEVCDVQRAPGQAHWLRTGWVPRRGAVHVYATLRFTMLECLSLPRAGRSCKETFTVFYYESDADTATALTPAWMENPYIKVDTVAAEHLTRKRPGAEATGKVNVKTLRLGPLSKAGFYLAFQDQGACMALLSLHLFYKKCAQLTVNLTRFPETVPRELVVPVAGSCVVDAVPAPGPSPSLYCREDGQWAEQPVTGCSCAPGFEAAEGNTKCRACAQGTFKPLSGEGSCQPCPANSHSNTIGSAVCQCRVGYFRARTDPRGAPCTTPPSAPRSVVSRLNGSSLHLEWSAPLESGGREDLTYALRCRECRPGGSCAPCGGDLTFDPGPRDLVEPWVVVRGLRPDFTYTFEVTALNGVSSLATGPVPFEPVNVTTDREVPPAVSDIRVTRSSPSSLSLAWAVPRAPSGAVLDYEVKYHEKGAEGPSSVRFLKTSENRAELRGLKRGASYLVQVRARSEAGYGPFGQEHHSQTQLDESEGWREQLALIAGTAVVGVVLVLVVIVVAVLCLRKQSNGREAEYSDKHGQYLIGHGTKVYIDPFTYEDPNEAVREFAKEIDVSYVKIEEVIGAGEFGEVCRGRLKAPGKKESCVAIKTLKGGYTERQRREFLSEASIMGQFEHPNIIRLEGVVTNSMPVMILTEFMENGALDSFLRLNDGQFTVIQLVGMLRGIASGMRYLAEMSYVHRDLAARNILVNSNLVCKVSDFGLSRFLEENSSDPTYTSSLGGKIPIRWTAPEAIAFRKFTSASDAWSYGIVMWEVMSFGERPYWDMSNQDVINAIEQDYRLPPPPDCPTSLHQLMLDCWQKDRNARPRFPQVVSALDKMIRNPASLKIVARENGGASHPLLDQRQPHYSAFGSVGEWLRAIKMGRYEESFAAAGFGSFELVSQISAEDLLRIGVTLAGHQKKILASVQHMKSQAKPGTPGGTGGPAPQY

[7] = target: T2, Ephrin type-A receptor 6 (Homo sapiens, UniProt Q9UF33); assay: (§1) Displacement of biotinylated ephrin-A1-Fc from EphA6 (unknown origin) preincubated for 1 hr followed by biotinylated-ephrin-A1-Fc addition measured after 4 hrs by ELISA
T2 sequence (Q9UF33 whole entry): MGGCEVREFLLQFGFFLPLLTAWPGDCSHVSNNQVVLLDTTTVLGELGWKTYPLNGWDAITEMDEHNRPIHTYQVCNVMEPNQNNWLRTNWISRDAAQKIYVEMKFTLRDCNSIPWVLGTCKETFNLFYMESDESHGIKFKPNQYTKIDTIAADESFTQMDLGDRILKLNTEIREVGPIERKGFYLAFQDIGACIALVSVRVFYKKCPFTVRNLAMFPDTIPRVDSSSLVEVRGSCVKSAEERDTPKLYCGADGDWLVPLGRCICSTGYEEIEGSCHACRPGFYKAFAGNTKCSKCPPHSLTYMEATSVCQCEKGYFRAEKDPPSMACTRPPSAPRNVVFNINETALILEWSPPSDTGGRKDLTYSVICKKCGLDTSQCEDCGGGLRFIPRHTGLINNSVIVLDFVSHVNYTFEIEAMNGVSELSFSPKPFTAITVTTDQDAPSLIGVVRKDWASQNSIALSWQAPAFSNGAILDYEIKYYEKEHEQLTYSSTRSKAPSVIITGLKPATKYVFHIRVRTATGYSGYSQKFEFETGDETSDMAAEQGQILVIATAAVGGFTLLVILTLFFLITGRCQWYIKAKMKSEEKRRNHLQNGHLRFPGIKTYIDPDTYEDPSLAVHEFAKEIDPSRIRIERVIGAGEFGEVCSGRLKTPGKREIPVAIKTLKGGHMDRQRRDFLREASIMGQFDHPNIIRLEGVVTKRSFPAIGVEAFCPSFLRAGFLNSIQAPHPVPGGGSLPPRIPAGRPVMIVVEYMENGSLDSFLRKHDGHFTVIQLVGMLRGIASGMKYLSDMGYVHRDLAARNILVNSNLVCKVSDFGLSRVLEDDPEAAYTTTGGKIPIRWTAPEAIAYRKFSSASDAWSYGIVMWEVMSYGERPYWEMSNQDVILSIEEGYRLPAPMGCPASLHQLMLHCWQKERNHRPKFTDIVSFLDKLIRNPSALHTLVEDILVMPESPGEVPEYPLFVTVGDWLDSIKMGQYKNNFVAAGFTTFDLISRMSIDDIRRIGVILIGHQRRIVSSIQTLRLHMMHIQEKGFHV

[8] = target: T3, Ephrin type-A receptor 6 (Homo sapiens) (UniProt Q9UF33); assay: as §1
T3 sequence (whole entry): T2 sequence (Q9UF33 whole entry)

For `C[C@H](CCC(=O)N[C@@H](Cc1c[nH]c2ccccc12)C(=O)O)[C@H]1CC[C@H]2[C@@H]3CC=C4C[C@@H](O)CC[C@]4(C)[C@H]3CC[C@]12C`, which remaining at 24 h, 1 µM [1] is on record?
The remaining at 24 h, 1 µM was 95.8%.

And the solubility kinetic at 2 h [2]?
The solubility kinetic at 2 h was 31.5 µM (≈ 17.7 µg/mL).

What about the Tmax [3] of the same molecule?
Its Tmax is 30 min.

What about the pIC50 [4] of the same molecule?
The pIC50 was 5.59.

What about the inhibition [4] of the same molecule?
The inhibition was “Dose-dependent effect”.

And the remaining at 1 h, 1 µM [5]?
Its remaining at 1 h, 1 µM is 70%.

And the inhibition [6]?
The inhibition was “Dose-dependent effect”.

And the pIC50 [7]?
The pIC50 was 5.46.

What about the inhibition [8] of the same molecule?
The inhibition was “Dose-dependent effect”.
